Results on 17 compounds are retold here after ChEMBL document CHEMBL1275333, “Identification of non-peptide malignant brain tumor (MBT) repeat antagonists by virtual screening of commercially available compounds” (J Med Chem, 2010).

Experiment [1] addresses T1, Lethal(3)malignant brain tumor-like protein 4 (Homo sapiens, UniProt Q8NA19).
T1 sequence (Q8NA19 whole entry): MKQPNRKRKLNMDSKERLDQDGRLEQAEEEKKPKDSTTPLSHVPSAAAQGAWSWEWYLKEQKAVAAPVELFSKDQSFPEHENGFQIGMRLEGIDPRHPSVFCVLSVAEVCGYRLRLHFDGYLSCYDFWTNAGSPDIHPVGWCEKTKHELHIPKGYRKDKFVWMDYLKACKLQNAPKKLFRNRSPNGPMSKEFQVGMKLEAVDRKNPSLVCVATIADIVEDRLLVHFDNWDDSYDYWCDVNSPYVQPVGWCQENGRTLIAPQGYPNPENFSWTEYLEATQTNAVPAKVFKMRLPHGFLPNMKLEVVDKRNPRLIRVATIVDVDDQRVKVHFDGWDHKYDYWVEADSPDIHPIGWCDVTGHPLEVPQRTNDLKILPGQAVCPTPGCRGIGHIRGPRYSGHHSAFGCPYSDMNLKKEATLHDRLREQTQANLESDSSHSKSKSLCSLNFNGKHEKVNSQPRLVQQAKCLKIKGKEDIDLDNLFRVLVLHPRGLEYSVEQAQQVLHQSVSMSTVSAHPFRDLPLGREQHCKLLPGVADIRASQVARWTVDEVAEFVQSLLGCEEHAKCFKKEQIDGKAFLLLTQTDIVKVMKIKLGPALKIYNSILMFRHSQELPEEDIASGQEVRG
The experiment is described as follows: Inhibition of L3MBTL4 by alpha-screening.

Experiment [2] has as its target T2, Lethal(3)malignant brain tumor-like protein 1 (Homo sapiens, UniProt Q9Y468).
T2 sequence (Q9Y468 whole entry): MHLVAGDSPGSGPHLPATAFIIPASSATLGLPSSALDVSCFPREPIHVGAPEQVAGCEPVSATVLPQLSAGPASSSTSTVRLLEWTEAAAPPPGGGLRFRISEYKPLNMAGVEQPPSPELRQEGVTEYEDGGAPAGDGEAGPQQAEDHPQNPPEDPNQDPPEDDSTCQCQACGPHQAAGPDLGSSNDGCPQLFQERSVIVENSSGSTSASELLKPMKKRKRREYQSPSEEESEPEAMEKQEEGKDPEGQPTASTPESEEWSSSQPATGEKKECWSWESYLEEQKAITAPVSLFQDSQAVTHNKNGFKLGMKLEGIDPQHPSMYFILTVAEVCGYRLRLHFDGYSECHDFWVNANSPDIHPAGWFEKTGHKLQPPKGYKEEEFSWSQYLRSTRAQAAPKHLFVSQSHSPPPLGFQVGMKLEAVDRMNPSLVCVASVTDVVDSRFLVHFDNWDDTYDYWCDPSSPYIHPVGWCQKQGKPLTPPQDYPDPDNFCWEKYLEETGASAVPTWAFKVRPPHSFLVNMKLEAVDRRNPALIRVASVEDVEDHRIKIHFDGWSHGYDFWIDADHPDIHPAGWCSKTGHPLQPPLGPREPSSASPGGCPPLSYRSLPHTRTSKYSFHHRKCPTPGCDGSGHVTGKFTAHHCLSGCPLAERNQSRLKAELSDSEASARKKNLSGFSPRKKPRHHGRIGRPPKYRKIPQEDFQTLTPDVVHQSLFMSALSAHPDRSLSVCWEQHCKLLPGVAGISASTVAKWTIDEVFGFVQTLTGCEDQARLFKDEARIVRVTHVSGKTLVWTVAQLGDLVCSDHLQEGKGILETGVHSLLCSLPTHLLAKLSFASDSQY
The experiment is described as follows: Inhibition of L3MBTL1 by alpha-screening.

Experiment [3] deals with MBT domain-containing protein 1 (Homo sapiens, UniProt Q05BQ5). The experiment is described as follows: Inhibition of MBTD1 by alpha-screening.
In experiment [4] the target is T3, Lethal(3)malignant brain tumor-like protein 3 (Homo sapiens, UniProt Q96JM7).
T3 sequence (Q96JM7 whole entry): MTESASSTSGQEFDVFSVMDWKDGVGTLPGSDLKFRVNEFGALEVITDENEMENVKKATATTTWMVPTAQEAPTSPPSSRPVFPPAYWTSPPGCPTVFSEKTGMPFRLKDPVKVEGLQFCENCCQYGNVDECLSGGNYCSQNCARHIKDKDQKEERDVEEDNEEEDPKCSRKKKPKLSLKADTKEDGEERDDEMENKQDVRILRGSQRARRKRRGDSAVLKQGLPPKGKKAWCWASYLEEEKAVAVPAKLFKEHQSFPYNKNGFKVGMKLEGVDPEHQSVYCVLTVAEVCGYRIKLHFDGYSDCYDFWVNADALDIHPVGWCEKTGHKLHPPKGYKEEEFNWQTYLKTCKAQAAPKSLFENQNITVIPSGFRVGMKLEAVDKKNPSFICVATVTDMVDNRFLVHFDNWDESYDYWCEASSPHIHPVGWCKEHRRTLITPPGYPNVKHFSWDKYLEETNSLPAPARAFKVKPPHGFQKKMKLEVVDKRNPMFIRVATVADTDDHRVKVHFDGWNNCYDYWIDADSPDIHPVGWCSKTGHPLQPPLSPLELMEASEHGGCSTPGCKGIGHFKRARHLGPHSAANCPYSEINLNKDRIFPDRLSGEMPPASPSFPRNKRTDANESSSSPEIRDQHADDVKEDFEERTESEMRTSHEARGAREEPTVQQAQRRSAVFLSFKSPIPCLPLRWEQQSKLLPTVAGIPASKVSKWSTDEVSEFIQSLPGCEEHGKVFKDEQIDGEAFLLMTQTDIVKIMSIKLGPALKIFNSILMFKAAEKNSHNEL
The experiment is described as follows: Inhibition of L3MBTL3 by alpha-screening.

Experiment [5] in a line: AlphaScreen counterscreen signal interference at 100 uM. (Alpha assays give light when donor and acceptor beads are brought close together.)

Each structure is given as a SMILES string. pIC50: −log10 of the molar value.

MBT domain-containing protein 1, sequence (Q05BQ5 whole entry, the tested form may be a part): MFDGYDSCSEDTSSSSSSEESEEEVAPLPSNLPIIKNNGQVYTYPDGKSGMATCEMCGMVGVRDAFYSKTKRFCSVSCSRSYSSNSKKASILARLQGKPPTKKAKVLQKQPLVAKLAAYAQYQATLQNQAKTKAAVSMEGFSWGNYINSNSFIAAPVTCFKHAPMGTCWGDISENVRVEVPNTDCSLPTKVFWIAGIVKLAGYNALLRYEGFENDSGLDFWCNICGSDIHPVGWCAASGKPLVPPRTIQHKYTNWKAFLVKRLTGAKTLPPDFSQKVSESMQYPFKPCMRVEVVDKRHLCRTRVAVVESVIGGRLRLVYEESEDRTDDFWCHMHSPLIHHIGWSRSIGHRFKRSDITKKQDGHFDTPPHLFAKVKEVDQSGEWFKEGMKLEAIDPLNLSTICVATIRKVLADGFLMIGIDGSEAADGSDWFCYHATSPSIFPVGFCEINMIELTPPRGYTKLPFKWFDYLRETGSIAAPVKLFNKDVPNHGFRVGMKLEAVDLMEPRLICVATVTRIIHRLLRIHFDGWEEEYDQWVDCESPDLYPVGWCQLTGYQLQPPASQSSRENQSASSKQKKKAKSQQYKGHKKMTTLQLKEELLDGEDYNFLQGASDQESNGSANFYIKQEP

As usually defined, the pIC50 is the IC50 on a negative log10 scale, so that one unit is a factor of ten. A low value points to a large IC50. For the compound `Cc1ccc(S(=O)(=O)NCCCN2CCCC2)cc1`, the pIC50 in experiment [1] was under 4.00; in experiment [2], 4.77; in experiment [3], 4.23.

For `CCN(CC)CCCNS(=O)(=O)c1cc(OC)ccc1OC`, the pIC50 in experiment [1] was under 4.00; in experiment [2], under 4.00; in experiment [4] it was 4.32; in experiment [3], under 4.00. Further, the Activity in experiment [5] was -6%.

Consider `CN(C)CCC(c1ccc(Cl)cc1)c1ccccn1` (stereo unspecified) [CHLORPHENIRAMINE], for which the pIC50 in experiment [3] was 4.47.

Turning to `CN(C)CCC(=O)c1cc2c(cc1Br)OCCCO2`, the pIC50 in experiment [1] is 4.92; in experiment [2], under 4.00; in experiment [4], under 4.00; in experiment [3], under 4.00. For the same compound, the Activity in experiment [5] came to 35%.

As for `CNCCCC1Sc2ccccc2Oc2ccccc21` (stereo unspecified), the pIC50 in experiment [1] was under 4.00; in experiment [2] it was 4.85; in experiment [3], under 4.00.

Regarding `CN(C)CCCNC(=O)C1(O)c2cc(Br)ccc2NC(=O)N1c1ccc(Cl)cc1` (stereo unspecified), the pIC50 was under 4.00 in experiment [1], 4.28 in experiment [2] and 4.43 in experiment [3]. Besides, the Activity in experiment [5] turned out to be 3%.

As to `CNCCCCOc1ccc(Cc2ccccc2)cc1`, the pIC50 is under 4.00 in experiment [1], 4.04 in experiment [2], under 4.00 in experiment [4] and under 4.00 in experiment [3]. The Activity in experiment [5] worked out at 8%.

With `CC(CCN(C)C)OC(=O)c1ccc(C(C)c2ccccc2)o1` (stereo unspecified), the pIC50 is under 4.00 in experiment [1], 4.08 in experiment [2], 4.12 in experiment [4] and 4.18 in experiment [3]. Also, the Activity in experiment [5] is 22%.

Consider `CNCCCCOc1ccc(C)cc1OC`, for which the pIC50 in experiment [1] is 4.04; in experiment [2], under 4.00; in experiment [4], 4.08; in experiment [3], under 4.00. The Activity in experiment [5] is 30%.

As to `CNCC1CCN(CCc2ccc(Cl)cc2)CC1`, the values for the pIC50 in experiment [1], in experiment [2] and in experiment [3] were under 4.00, 4.16 and under 4.00, respectively.

Regarding `CNCCCC(C#N)(c1ccccc1C)C(C)C` (stereo unspecified), the pIC50 in experiment [1] was under 4.00; in experiment [2], 4.74; in experiment [4], under 4.00; in experiment [3], under 4.00. For the same compound, the Activity in experiment [5] is 3%.

On to `CNCCC1OC(c2ccc(Cl)cc2)Cc2ccccc21` (stereo unspecified), for which the pIC50 in experiment [1] is 4.11; in experiment [3], under 4.00.

For the compound `CNCCCCc1ccccc1`, the pIC50 in experiment [1] is under 4.00; in experiment [2] it was 4.17; in experiment [4] it was under 4.00; in experiment [3], under 4.00. For the same compound, the Activity in experiment [5] is 5%.

Take `CCN(CC)CCCNS(=O)(=O)c1ccc(F)c(Cl)c1`: the pIC50 in experiment [1], in experiment [2] and in experiment [3] was under 4.00 in each case. Moreover, the Activity in experiment [5] was found to be 8%.

`CCc1cc(OCCCCNC)ccc1Cl`: the pIC50 in experiment [1] is under 4.00; in experiment [2], 4.02; in experiment [3], under 4.00.

Take `CCN(CC)CC#CCOC(=O)C(O)(c1ccccc1)C1CCCCC1` (stereo unspecified) [OXYBUTYNIN]: the pIC50 in experiment [1], in experiment [2] and in experiment [3] was under 4.00 in each case.

Take `Cc1ncc(CCCCN(C)C)c2c1[nH]c1ccccc12`: the pIC50 in experiment [1] is under 4.00; in experiment [2] it was 4.68; in experiment [4], 5.24; in experiment [3], 4.14. Further, in experiment [5], the Activity stood at 15%.
